Laboratory results from patent US8859529B2, “Compounds for the treatment of inflammatory disorders” (Merck Sharp & Dohme Corp., priority 2008, dated 2014).
pIC50: −log10 of the molar value.

Key:
[1] = tested on: TNF-α production from human whole blood; assay: Inhibition of TNF-α production from human whole blood (hWBA); assay type: cell-based; conditions: human whole blood diluted 1:1, 1 h pre-incubation, LPS, 3.5 h, TNF-α by ELISA; N/A = Not Active
Experimental: The compounds' ability to inhibit TACE activity can also be determined in human whole blood using the assay conditions described n Example 15 below.
Human whole blood was diluted 1:1 with serum free medium (RPMI, L-glutamine, Pen-Strep, HEPES) and incubated with a test compound in a final volume of 360 μl for 1 h at 37° C. Forty microliters of LPS (10 μg/mL) was then added. Supernatant was collected after 3.5 h incubation and the concentration of TNF-α was determined by ELISA (R&D Systems). The concentration of the test compound which inhibits 50% of the amount of TNF-α from the untreated control was determined.

[2] = Area under the curve determinations of plasma levels in rats (rrAUC); assay type: in vivo; conditions: rapid rat AUC of the drug (parent) in plasma; oral 10 mg/kg, fasted rats, blood 0.5-6 h post-dosing
Experimental: To gain insight into the pharmacokinetic properties of the compounds of formula (I), plasma levels of the compounds in rats were determined according to the protocol described in Korfmacher, W. A,; Cox, K. A.; Ng, K. J.; Veals, J.; Hsieh, Y.; Wainhaus, S.; Broske, L; Prelusky, D.; Nomeir, A.; White, R. E. Rapid Commun. Mass Spectrorn, 2001, 15, 335. Briefly, rats, after an overnight fast, were dosed orally with the test compound at a dose of 10 mg/kg in a 5 mL/kg dose volume. Blood was collected at 0.5, 1, 2, 3, 4, and 6 h post-dosing. Mass spectrometry using high performance liquid chromatography was used to identify and measure the concentrations of the test compounds in the plasma at the various time points. The parent ion of each test compound was used to identify and quantitate the compounds in plasma.

pIC50 [1] | PK (rrAUC) parent [2] [µM·h] | Compound
6.03 | 0 | COc1ccc2c(c1)C(=O)N(C[C@]1(c3cc4cnccc4o3)C(=O)N(COC(=O)c3ccccc3OC(C)=O)C(=O)N1C(C)=O)C2 [Compound 83]
5.27 | 0.056 | COc1ccc2c(c1)C(=O)N(C[C@]1(c3cc4cnccc4o3)C(=O)N(COC(=O)OCC3COCO3)C(=O)N1C(=O)OCC1COCO1)C2 (stereo partly shown) [Compound 86]
